Data set [1] has as its target T1, VLA-4 (α4β1 integrin) (Homo sapiens, UniProt P05556+P13612).
T1 construct: Ramos cells bearing cell-surface VLA-4; endogenous in cells; host or cells: Ramos cells
Kind of data set: VLA-4/VCAM-1 Screening Assay (solid-phase dual antibody ELISA). The note with it: Ramos cell-derived VLA-4 binding to immobilized recombinant human VCAM-1. The protocol: VLA-4/VCAM-1 Screening Assay
VLA-4 antagonist activity, defined as ability to compete for binding to immobilized VCAM-1, was quantitated using a solid-phase, dual antibody ELISA. VLA-4 (α4β1 integrin) bound to VCAM-1 was detected by a complex of anti-integrin β1 antibody: HRP-conjugated anti-mouse IgG: chromogenic substrate (K-Blue). Initially, this entailed coating 96 well plates (Nunc Maxisorp) with recombinant human VCAM-1 (0.4 μg in 100 μl PBS), sealing each plate and then allowing the plates to stand at 4° C. for ˜18 hr. […] On the day of assay, all plates were washed twice with VCAM Assay Buffer (200 μl/well of 50 mM Tris-HCl, 100 mM NaCl, 1 mM MnCl2, 0.05% Tween 20; pH 7.4). Test compounds were dissolved in 100% DMSO and then diluted 1:20 in VCAM Assay Buffer supplemented with 1 mg/mL BSA (i.e., final DMSO=5%). A series of 1:4 dilutions were performed to achieve a concentration range of 0.005 nM-1.563 μM for each test compound. 100 μl per well of each dilution was added to the VCAM-coated plates, followed by 10 μl of Ramos cell-derived VLA-4. These plates were sequentially mixed on a platform shaker for 1 min, incubated for 2 hr at 37° C., and then washed four times with 200 μl/well VCAM Assay Buffer. 100 μl of mouse anti-human integrin β1 antibody was added to each well (0.6 μg/mL in VCAM Assay Buffer+1 mg/mL BSA) and allowed to incubate for 1 hr at 37° C. At the conclusion of this incubation period, all plates were washed four times with VCAM Assay Buffer (200 μl/well). A corresponding second antibody, HRP-conjugated goat anti-mouse IgG (100 μl per well @ 1:800 dilution in VCAM Assay Buffer+1 mg/mL BSA), was then added to each well, followed by a 1 hr incubation at room temperature and concluded by three washes (200 μl/well) with VCAM Assay Buffer. Color development was initiated by addition of 100 μl K-Blue per well (15 min incubation, room temp) and terminated by addition of 100 μl Red Stop Buffer per well. All plates were then read in a UV/Vis spectrophotometer at […]. Results were calculated as % inhibition of total binding (i.e., VLA-4+VCAM-1 in the absence of test compound). The results are provided in the following Table I (A=IC50<1 nM, B=IC50<10 nM): […]

Data set [2] deals with T1, VLA-4 (α4β1 integrin). Kind of data set: Ramos (VLA-4)/VCAM-1 Cell-Based Screening Assay (cell adhesion). The note with it: Calcein-AM labeled Ramos cells adhering to immobilized recombinant human VCAM-1. The method, then:
Ramos (VLA-4)/VCAM-1 Cell-Based Screening Assay Protocol
Soluble recombinant human VCAM-1 (mixture of 5- and 7-Ig domain) was purified from CHO cell culture media by inmmunoaffinity chromatography and maintained in a solution containing 0.1 M Tris-glycine (pH 7.5), 0.1 M NaCl, 5 mM EDTA, 1 mM PMSF, […] NaN3 and 10 μg/mL leupeptin. Calcein-AM was purchased from Molecular Probes Inc.
VLA-4 (α4β1 integrin) antagonist activity, defined as ability to compete with cell-surface VLA-4 for binding to immobilized VCAM-1, was quantitated using a Ramos-VCAM-1 cell adhesion assay. Ramos cells bearing cell-surface VLA-4, were labeled with a fluorescent dye (Calcein-AM) and allowed to bind VCAM-1 in the presence or absence of test compounds. A reduction in fluorescence intensity associated with adherent cells (% inhibition) reflected competitive inhibition of VLA-4 mediated cell adhesion by the test compound.
Initially, this entailed coating 96 well plates (Nunc Maxisorp) with recombinant human VCAM-1 (100 ng in 100 μl PBS), sealing each plate and allowing the plates to stand at 4° C. for ≈18 hr. The VCAM-coated plates were subsequently washed twice with 0.05% Tween-20 in PBS, and then blocked for 1 hr (room temperature) with 200 μl of Blocking Buffer (1% BSA/0.02% thimerosal) to reduce non-specific binding. Following the incubation with Blocking Buffer, plates were inverted, blotted and the remaining buffer aspirated. Each plate was then washed with 300 μl PBS, inverted and the remaining PBS aspirated.
Test compounds were dissolved in 100% DMSO and then diluted 1:25 in VCAM Cell Adhesion Assay Buffer (4 mM CaCl2, 4 mM MgCl2 in 50 mM TRIS-HCl, pH 7.5) (final DMSO=4%). A series of eight 1:4 dilutions were performed for each compound (general concentration range of 1 nM-12,500 nM). 100 μl/well of each dilution was added to the VCAM-coated plates, followed by 100 μl of Ramos cells (200,000 cells/well in 1% BSA/PBS). Plates containing test compounds and Ramos cells were allowed to incubate for 45 min at room temperature, after which 165 μl/well PBS was added. Plates were inverted to remove non-adherent cells, blotted and 300 μl/well PBS added. Plates were again inverted, blotted and the remaining buffer gently aspirated. 100 μl Lysis Buffer (0.1% SDS in 50 mM TRIS-HCl, pH 8.5) was added to each well and agitated for 2 min on a rotary shaking platform. The plates were then read for fluorescence intensity on a Cytofluor 2300 (Millipore) fluorecence measurement system (excitation=485 nm, emission=530 nm). The results are shown in the following Table II, where (A=IC50<100 nM, B=IC50<10000 nM): […]

Molecules are shown by their SMILES.

T1 sequence (P13612 34-1032): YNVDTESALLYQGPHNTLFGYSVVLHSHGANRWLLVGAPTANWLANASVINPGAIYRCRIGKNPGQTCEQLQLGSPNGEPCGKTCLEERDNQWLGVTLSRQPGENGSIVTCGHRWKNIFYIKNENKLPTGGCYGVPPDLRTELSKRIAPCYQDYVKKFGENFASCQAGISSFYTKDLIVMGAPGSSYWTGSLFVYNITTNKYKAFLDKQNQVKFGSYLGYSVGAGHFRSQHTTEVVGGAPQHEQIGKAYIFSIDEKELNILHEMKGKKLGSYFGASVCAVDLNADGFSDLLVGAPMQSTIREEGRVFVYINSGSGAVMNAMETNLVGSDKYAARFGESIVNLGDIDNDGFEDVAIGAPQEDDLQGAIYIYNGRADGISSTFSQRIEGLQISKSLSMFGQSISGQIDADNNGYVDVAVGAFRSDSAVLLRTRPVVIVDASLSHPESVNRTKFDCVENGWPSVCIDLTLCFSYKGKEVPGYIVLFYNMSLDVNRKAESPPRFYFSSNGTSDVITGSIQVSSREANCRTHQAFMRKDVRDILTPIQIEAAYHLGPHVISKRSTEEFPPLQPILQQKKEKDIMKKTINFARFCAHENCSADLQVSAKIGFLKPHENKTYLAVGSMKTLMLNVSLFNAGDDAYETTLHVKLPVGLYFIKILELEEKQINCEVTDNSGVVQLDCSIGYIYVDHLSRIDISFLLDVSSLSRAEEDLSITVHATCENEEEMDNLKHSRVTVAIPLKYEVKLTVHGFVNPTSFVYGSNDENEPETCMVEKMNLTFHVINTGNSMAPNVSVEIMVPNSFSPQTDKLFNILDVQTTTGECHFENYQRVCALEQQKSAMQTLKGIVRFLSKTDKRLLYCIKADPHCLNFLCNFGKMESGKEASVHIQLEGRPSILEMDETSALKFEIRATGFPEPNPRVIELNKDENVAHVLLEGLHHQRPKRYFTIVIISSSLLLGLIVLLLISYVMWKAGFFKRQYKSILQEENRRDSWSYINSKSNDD
T1 sequence (P05556 21-798): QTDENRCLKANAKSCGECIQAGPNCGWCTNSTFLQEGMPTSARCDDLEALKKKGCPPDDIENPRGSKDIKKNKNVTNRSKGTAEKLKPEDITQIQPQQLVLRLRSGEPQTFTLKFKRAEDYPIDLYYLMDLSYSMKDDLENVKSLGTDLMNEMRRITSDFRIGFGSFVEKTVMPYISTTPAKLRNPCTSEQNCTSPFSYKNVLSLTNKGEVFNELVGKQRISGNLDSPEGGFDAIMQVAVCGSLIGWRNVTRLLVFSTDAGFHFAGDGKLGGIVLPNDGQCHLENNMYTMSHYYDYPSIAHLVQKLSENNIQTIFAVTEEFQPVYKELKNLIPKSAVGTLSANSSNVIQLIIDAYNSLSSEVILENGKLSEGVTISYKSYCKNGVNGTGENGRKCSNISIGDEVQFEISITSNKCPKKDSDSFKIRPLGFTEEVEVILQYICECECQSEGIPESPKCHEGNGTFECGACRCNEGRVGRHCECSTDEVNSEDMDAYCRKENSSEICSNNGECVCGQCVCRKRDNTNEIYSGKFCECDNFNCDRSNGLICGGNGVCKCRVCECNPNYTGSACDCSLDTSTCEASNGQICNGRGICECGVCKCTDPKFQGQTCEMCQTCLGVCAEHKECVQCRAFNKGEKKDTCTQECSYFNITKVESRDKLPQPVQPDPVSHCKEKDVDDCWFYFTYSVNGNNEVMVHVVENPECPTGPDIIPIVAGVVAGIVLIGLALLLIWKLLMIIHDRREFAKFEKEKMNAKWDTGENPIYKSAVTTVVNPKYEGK

As a reminder, the IC50 is the midpoint of a concentration-inhibition curve. One may read the melting point as the temperature, or range, at which the solid turns liquid. For the compound `Cc1cccc(Cl)c1C(=O)N[C@@H](Cc1ccc(-c2cn(C)c(=O)n(C)c2=O)cc1)C(=O)O` [Example 2, N-[(2-chloro-6-methylphenyl)carbonyl]-4-(1,3-dimethyl-2,4-dioxo-5-pyrimidinyl)-L-phenylalanine], the melting point lay within 234 to 236 °C. Also, the IC50 on VLA-4 (α4β1 integrin) [1] was below 0.001 µM. The IC50 at VLA-4 (α4β1 integrin) [2] is below 0.1 µM. Take `COCCC1(C(=O)N[C@@H](Cc2ccc(-c3cn(C)c(=O)n(C)c3=O)cc2)C(=O)O)CCCC1` [Example 3, 4-[(1,3-dimethyl-2,4-dioxo-5-pyrimidinyl)]-N-[[1-(2-methoxyethyl)cyclopentyl]carbonyl]-L-phenylalanine]: the 50% inhibitory concentration (IC50) on VLA-4 (α4β1 integrin) [1] was below 0.01 µM; at VLA-4 (α4β1 integrin) [2], below 0.1 µM. Consider `Cc1cccc(Br)c1C(=O)N[C@@H](Cc1ccc(-c2cn(C)c(=O)n(C)c2=O)cc1)C(=O)O` [Example 4, N-[(2-bromo-6-methylphenyl)carbonyl]-4-(1,3-dimethyl-2,4-dioxo-5-pyrimidinyl)-L-phenylalanine], for which the IC50 on VLA-4 (α4β1 integrin) [1] is below 0.001 µM; on VLA-4 (α4β1 integrin) [2], below 0.1 µM. For `COc1ccc(Br)c(C(=O)N[C@@H](Cc2ccc(-c3cn(C)c(=O)n(C)c3=O)cc2)C(=O)O)c1` [Example 5, N-[(2-bromo-5-methoxyphenyl)carbonyl]-4-[1,3-dimethyl-2,4-dioxo-5-pyrimidinyl]-L-phenylalanine], the IC50 on VLA-4 (α4β1 integrin) [1] is below 0.001 µM; on VLA-4 (α4β1 integrin) [2], below 10 µM.

In the case of `Cc1c(-c2ccc(C[C@H](NC(=O)c3c(Cl)cccc3C(C)C)C(=O)O)cc2)c(=O)n(C)c(=O)n1C` [Example 17, N-[[2-chloro-6-(2-methylethyl)phenyl]carbonyl]-4-(1,3,6-trimethyl-2,4-dioxo-5-pyrimidinyl)-L-phenylalanine], the melting point was in the range of 205 to 209 °C. Turning to `CCN(CC)CCOC(=O)[C@H](Cc1ccc(-c2c(C)n(C)c(=O)n(C)c2=O)cc1)NC(=O)c1c(Cl)cccc1Cl` [Example 28, N-[(2,6-dichlorophenyl)carbonyl]-4-(1,3,6-trimethyl-2,4-dioxo-5-pyrimidinyl)-L-phenylalanine 2-[(N,N-diethyl)amino]ethyl ester], the IC50 at VLA-4 (α4β1 integrin) [2] is below 0.1 µM. `CCN(CC)CCOC(=O)[C@H](Cc1ccc(-c2c(C)n(C)c(=O)n(C)c2=O)cc1)NC(=O)c1c(C)cccc1Cl` [Example 29, N-[(2-chloro-6-methylphenyl)carbonyl]-4-(1,3,6-trimethyl-2,4-dioxo-5-pyrimidinyl)-L-phenylalanine 2-[(N,N-diethyl)amino]ethyl ester]: the half-inhibitory concentration (IC50) on VLA-4 (α4β1 integrin) [2] is below 0.1 µM. As to `CCOC(=O)[C@H](Cc1ccc(-c2c(C)n(C)c(=O)n(C)c2=O)cc1)NC(=O)c1c(C)cccc1Cl` [Example 30, N-[(2-chloro-6-methylphenyl)carbonyl]-4-(1,3,6-trimethyl-2,4-dioxo-5-pyrimidinyl)-L-phenylalanine ethyl ester], the IC50 on VLA-4 (α4β1 integrin) [2] is below 10 µM. For the compound `Cc1c(-c2ccc(C[C@H](NC(=O)c3c(Cl)cccc3Cl)C(=O)OCCN3CCOCC3)cc2)c(=O)n(C)c(=O)n1C` [Example 31, N-[(2,6-dichlorophenyl)carbonyl]-4-(1,3,6-trimethyl-2,4-dioxo-5-pyrimidinyl)-L-phenylalanine 2-(4-morpholino)ethyl ester], the melting point fell in the range of 90 to 94 °C. Also, the concentration for half-maximal inhibition (IC50) at VLA-4 (α4β1 integrin) [2] is below 10 µM. In the case of `Cc1cccc(Cl)c1C(=O)N[C@@H](Cc1ccc(-c2c(C)n(C)c(=O)n(C)c2=O)cc1)C(=O)OCCN1CCOCC1` [Example 32, N-[(2-chloro-6-methylphenyl)carbonyl]-4-(1,3,6-trimethyl-2,4-dioxo-5-pyrimidinyl)-L-phenylalanine 2-(4-morpholino)ethyl ester], the half-inhibitory concentration (IC50) on VLA-4 (α4β1 integrin) [2] was below 10 µM. Consider `CC(=O)OC(C)OC(=O)[C@H](Cc1ccc(-c2c(C)n(C)c(=O)n(C)c2=O)cc1)NC(=O)c1c(Cl)cccc1Cl` (stereo partly drawn) [Example 33, N-[(2,6-dichlorophenyl)carbonyl]-4-(1,3,6-trimethyl-2,4-dioxo-5-pyrimidinyl)-L-phenylalanine 1-(acetoxy)ethyl ester], for which the melting point lay within 168 to 170 °C. The IC50 at VLA-4 (α4β1 integrin) [2] was below 10 µM. Take `CC(=O)OC(C)OC(=O)[C@H](Cc1ccc(-c2c(C)n(C)c(=O)n(C)c2=O)cc1)NC(=O)c1c(C)cccc1Cl` (stereo partly drawn) [Example 34, N-[(2-chloro-6-methylphenyl)carbonyl]-4-(1,3,6-trimethyl-2,4-dioxo-5-pyrimidinyl)-L-phenylalanine 1-(acetoxy)ethyl ester]: the melting point is 84 to 88 °C. Besides, at VLA-4 (α4β1 integrin) [2], the IC50 was below 10 µM. For `Cc1c(-c2ccc(C[C@H](NC(=O)[C@@H]3CCCN3)C(=O)O)cc2)c(=O)n(C)c(=O)n1C` [Example 35, L-prolyl-4-(1,3,6-trimethyl-2,4-dioxo-5-pyrimidinyl)-L-phenylalanine], the IC50 on VLA-4 (α4β1 integrin) [2] is below 0.1 µM.

The record behind these values is US6380387B1, “4-Pyrimidinyl-n-acyl-l phenylalanines” (Hoffmann-La Roche Inc., priority 1999, dated 2002).
